{"source": "PubChem BioAssay AID1963450", "about": "(Molecular Pharmacology Branch, DTP, NCI, 2024)", "system": "556581-035-R-J1-PDC complex spheroid growth", "experiment": "Anticancer human tumor 556581-035-R-J1-PDC patient-derived ovarian carcinoma cell line growth inhibition [Asc]", "details": "for viability, T/C: stronger effect = lower value", "how_it_was_run": "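Spheroid model: tumor line + HUVEC + hMSC. Single agents and combinations; top conc. at/near clinical Cmax (10 microM if undetermined), half-log dilutions. DMSO stocks at 800-fold test concentration.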", "note": "Values joined by “and” are separate entries in the source; they are usually repeats but may differ in a detail not shown here. Identical values can stand only once.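 Further: spheroids exposed to agents for 7 days before viability read.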"}
{"smiles": "C=C(F)C(=O)N1CCN(c2nc(OCC3CCCN3C)nc3c2CCN(c2cccc4cccc(Cl)c24)C3)CC1CC#N", "note": "(configuration not stated) + CNC(C)C(=O)NC1CN(S(=O)(=O)c2cccc(S(=O)(=O)N3CCC4CCC(C(=O)NC(c5ccccc5)c5ccccc5)N4C(=O)C(NC(=O)C(C)NC)C3)c2)CCC2CCC(C(=O)NC(c3ccccc3)c3ccccc3)N2C1=O", "values": [{"measurement": "IC50", "setting": "curve of first compound, second compound 0.01 µM", "result": 2630, "unit": "nM"}, {"measurement": "IC50", "setting": "curve of first compound, second compound 0.0316 µM", "result": 1880, "unit": "nM"}, {"measurement": "IC50", "setting": "curve of first compound, second compound 0.1 µM", "result": 1500, "unit": "nM"}, {"measurement": "IC50", "setting": "curve of first compound, second compound 0.316 µM", "result": 1070, "unit": "nM"}, {"measurement": "IC50", "setting": "curve of first compound, second compound 1 µM", "result": 1090, "unit": "nM"}, {"measurement": "viability, T/C", "setting": "second compound 0.01 µM, first compound 0.0316 µM", "result": 85.3, "unit": "%"}, {"measurement": "viability, T/C", "setting": "second compound 0.01 µM, first compound 0.1 µM", "result": 85, "unit": "%"}, {"measurement": "viability, T/C", "setting": "second compound 0.01 µM, first compound 0.316 µM", "result": 83, "unit": "%"}, {"measurement": "viability, T/C", "setting": "second compound 0.01 µM, first compound 1 µM", "result": 86.6, "unit": "%"}, {"measurement": "viability, T/C", "setting": "second compound 0.01 µM, first compound 3.16 µM", "result": 43.2, "unit": "%"}, {"measurement": "viability, T/C", "setting": "second compound 0.01 µM, first compound 10 µM", "result": 0.21, "unit": "%"}, {"measurement": "viability, T/C", "setting": "second compound 0.0316 µM, first compound 0.0316 µM", "result": 83.9, "unit": "%"}, {"measurement": "viability, T/C", "setting": "second compound 0.0316 µM, first compound 0.1 µM", "result": 86.8, "unit": "%"}, {"measurement": "viability, T/C", "setting": "second compound 0.0316 µM, first compound 0.316 µM", "result": 86.5, "unit": "%"}, {"measurement": "viability, T/C", "setting": "second compound 0.0316 µM, first compound 1 µM", "result": 72, "unit": "%"}, {"measurement": "viability, T/C", "setting": "second compound 0.0316 µM, first compound 3.16 µM", "result": 31.6, "unit": "%"}, {"measurement": "viability, T/C", "setting": "second compound 0.0316 µM, first compound 10 µM", "result": 0.18, "unit": "%"}, {"measurement": "viability, T/C", "setting": "second compound 0.1 µM, first compound 0.0316 µM", "result": 66.5, "unit": "%"}, {"measurement": "viability, T/C", "setting": "second compound 0.1 µM, first compound 0.1 µM", "result": 77.1, "unit": "%"}, {"measurement": "viability, T/C", "setting": "second compound 0.1 µM, first compound 0.316 µM", "result": 79.5, "unit": "%"}, {"measurement": "viability, T/C", "setting": "second compound 0.1 µM, first compound 1 µM", "result": 58.4, "unit": "%"}, {"measurement": "viability, T/C", "setting": "second compound 0.1 µM, first compound 3.16 µM", "result": 29.5, "unit": "%"}, {"measurement": "viability, T/C", "setting": "second compound 0.1 µM, first compound 10 µM", "result": 0.17, "unit": "%"}, {"measurement": "viability, T/C", "setting": "second compound 0.316 µM, first compound 0.0316 µM", "result": 78.7, "unit": "%"}, {"measurement": "viability, T/C", "setting": "second compound 0.316 µM, first compound 0.1 µM", "result": 75.1, "unit": "%"}, {"measurement": "viability, T/C", "setting": "second compound 0.316 µM, first compound 0.316 µM", "result": 63.7, "unit": "%"}, {"measurement": "viability, T/C", "setting": "second compound 0.316 µM, first compound 1 µM", "result": 56, "unit": "%"}, {"measurement": "viability, T/C", "setting": "second compound 0.316 µM, first compound 3.16 µM", "result": 20, "unit": "%"}, {"measurement": "viability, T/C", "setting": "second compound 0.316 µM, first compound 10 µM", "result": 1.79, "unit": "%"}, {"measurement": "viability, T/C", "setting": "second compound 1 µM, first compound 0.0316 µM", "result": 66.5, "unit": "%"}, {"measurement": "viability, T/C", "setting": "second compound 1 µM, first compound 0.1 µM", "result": 62.7, "unit": "%"}, {"measurement": "viability, T/C", "setting": "second compound 1 µM, first compound 0.316 µM", "result": 62.3, "unit": "%"}, {"measurement": "viability, T/C", "setting": "second compound 1 µM, first compound 1 µM", "result": 52.3, "unit": "%"}, {"measurement": "viability, T/C", "setting": "second compound 1 µM, first compound 3.16 µM", "result": 24.4, "unit": "%"}, {"measurement": "viability, T/C", "setting": "second compound 1 µM, first compound 10 µM", "result": 2.63, "unit": "%"}]}
{"smiles": "Cc1nc(N2CCC3(CC2)COC(C)C3N)c(CO)nc1Sc1ccnc(N)c1Cl", "note": "(configuration not stated) + CCN1C(C(=O)NC23CCC(C(=O)O)(CC2)CC3)C(c2cccc(Cl)c2F)C2(C(=O)Nc3cc(Cl)ccc32)C12CCCCC2", "values": [{"measurement": "IC50", "setting": "curve of first compound, second compound 0.03 µM", "result": 2240, "unit": "nM"}, {"measurement": "IC50", "setting": "curve of first compound, second compound 0.0949 µM", "result": 1530, "unit": "nM"}, {"measurement": "IC50", "setting": "curve of first compound, second compound 0.3 µM", "result": "> 3000", "unit": "nM"}, {"measurement": "IC50", "setting": "curve of first compound, second compound 0.949 µM", "result": 2430, "unit": "nM"}, {"measurement": "IC50", "setting": "curve of first compound, second compound 3 µM", "result": 847, "unit": "nM"}, {"measurement": "viability, T/C", "setting": "second compound 0.03 µM, first compound 0.00949 µM", "result": 84.7, "unit": "%"}, {"measurement": "viability, T/C", "setting": "second compound 0.03 µM, first compound 0.03 µM", "result": 82.1, "unit": "%"}, {"measurement": "viability, T/C", "setting": "second compound 0.03 µM, first compound 0.0949 µM", "result": 74, "unit": "%"}, {"measurement": "viability, T/C", "setting": "second compound 0.03 µM, first compound 0.3 µM", "result": 62.4, "unit": "%"}, {"measurement": "viability, T/C", "setting": "second compound 0.03 µM, first compound 0.949 µM", "result": 64.3, "unit": "%"}, {"measurement": "viability, T/C", "setting": "second compound 0.03 µM, first compound 3 µM", "result": 45.1, "unit": "%"}, {"measurement": "viability, T/C", "setting": "second compound 0.0949 µM, first compound 0.00949 µM", "result": 88.9, "unit": "%"}, {"measurement": "viability, T/C", "setting": "second compound 0.0949 µM, first compound 0.03 µM", "result": 91.2, "unit": "%"}, {"measurement": "viability, T/C", "setting": "second compound 0.0949 µM, first compound 0.0949 µM", "result": 88.1, "unit": "%"}, {"measurement": "viability, T/C", "setting": "second compound 0.0949 µM, first compound 0.3 µM", "result": 66.5, "unit": "%"}, {"measurement": "viability, T/C", "setting": "second compound 0.0949 µM, first compound 0.949 µM", "result": 60.6, "unit": "%"}, {"measurement": "viability, T/C", "setting": "second compound 0.0949 µM, first compound 3 µM", "result": 39.4, "unit": "%"}, {"measurement": "viability, T/C", "setting": "second compound 0.3 µM, first compound 0.00949 µM", "result": 85.7, "unit": "%"}, {"measurement": "viability, T/C", "setting": "second compound 0.3 µM, first compound 0.03 µM", "result": 95.7, "unit": "%"}, {"measurement": "viability, T/C", "setting": "second compound 0.3 µM, first compound 0.0949 µM", "result": 72.8, "unit": "%"}, {"measurement": "viability, T/C", "setting": "second compound 0.3 µM, first compound 0.3 µM", "result": 73.7, "unit": "%"}, {"measurement": "viability, T/C", "setting": "second compound 0.3 µM, first compound 0.949 µM", "result": 49.5, "unit": "%"}, {"measurement": "viability, T/C", "setting": "second compound 0.3 µM, first compound 3 µM", "result": 58.9, "unit": "%"}, {"measurement": "viability, T/C", "setting": "second compound 0.949 µM, first compound 0.00949 µM", "result": 93.4, "unit": "%"}, {"measurement": "viability, T/C", "setting": "second compound 0.949 µM, first compound 0.03 µM", "result": 82.3, "unit": "%"}, {"measurement": "viability, T/C", "setting": "second compound 0.949 µM, first compound 0.0949 µM", "result": 80.9, "unit": "%"}, {"measurement": "viability, T/C", "setting": "second compound 0.949 µM, first compound 0.3 µM", "result": 68.4, "unit": "%"}, {"measurement": "viability, T/C", "setting": "second compound 0.949 µM, first compound 0.949 µM", "result": 54.7, "unit": "%"}, {"measurement": "viability, T/C", "setting": "second compound 0.949 µM, first compound 3 µM", "result": 49.4, "unit": "%"}, {"measurement": "viability, T/C", "setting": "second compound 3 µM, first compound 0.00949 µM", "result": 88.4, "unit": "%"}, {"measurement": "viability, T/C", "setting": "second compound 3 µM, first compound 0.03 µM", "result": 78.7, "unit": "%"}, {"measurement": "viability, T/C", "setting": "second compound 3 µM, first compound 0.0949 µM", "result": 79.7, "unit": "%"}, {"measurement": "viability, T/C", "setting": "second compound 3 µM, first compound 0.3 µM", "result": 60.8, "unit": "%"}, {"measurement": "viability, T/C", "setting": "second compound 3 µM, first compound 0.949 µM", "result": 45.7, "unit": "%"}, {"measurement": "viability, T/C", "setting": "second compound 3 µM, first compound 3 µM", "result": 50.6, "unit": "%"}]}
{"smiles": "NC1CCC(NC2CC2c2ccccc2)CC1", "note": "(configuration not stated)", "values": [{"measurement": "viability, T/C", "setting": "compound 0.000316 µM", "result": "86.2% and 89% and 93.9%"}, {"measurement": "viability, T/C", "setting": "compound 0.001 µM", "result": "88.5% and 105% and 92.8%"}, {"measurement": "viability, T/C", "setting": "compound 0.00316 µM", "result": "92.3% and 95.4% and 89.9%"}, {"measurement": "viability, T/C", "setting": "compound 0.01 µM", "result": "89.6% and 94.8% and 95.2%"}, {"measurement": "viability, T/C", "setting": "compound 0.0316 µM", "result": "94.2% and 84.8% and 111%"}, {"measurement": "viability, T/C", "setting": "compound 0.1 µM", "result": "87.9% and 97.2% and 85%"}, {"measurement": "IC50", "setting": "curve of compound", "result": "> 100", "unit": "nM"}]}
